US6043212A, “Recombinant C140 receptor, its agonists and antagonists, and nucleic acids encoding the receptor” (COR Therapeutics, Inc., priority 1995, dated 2000)
Peptide text beside a SMILES is read from it.

What follows are compounds tested against T1, wild-type mouse C140 receptor (Mus musculus, UniProt P55086) (assay: 45Ca release by Xenopus oocytes expressing wild-type mouse C140 receptor). Details: Table 2; peptides at 100 μM; wild-type mouse C140 receptor in oocytes.
T1 construct: Native receptors were produced by cloning the coding region of the receptor gene; expressed in transfected cells; host or cells: Xenopus laevis oocytes injected with capped cRNA from pSG-5 C140
T1 sequence (P55086 32-399 limits assumed): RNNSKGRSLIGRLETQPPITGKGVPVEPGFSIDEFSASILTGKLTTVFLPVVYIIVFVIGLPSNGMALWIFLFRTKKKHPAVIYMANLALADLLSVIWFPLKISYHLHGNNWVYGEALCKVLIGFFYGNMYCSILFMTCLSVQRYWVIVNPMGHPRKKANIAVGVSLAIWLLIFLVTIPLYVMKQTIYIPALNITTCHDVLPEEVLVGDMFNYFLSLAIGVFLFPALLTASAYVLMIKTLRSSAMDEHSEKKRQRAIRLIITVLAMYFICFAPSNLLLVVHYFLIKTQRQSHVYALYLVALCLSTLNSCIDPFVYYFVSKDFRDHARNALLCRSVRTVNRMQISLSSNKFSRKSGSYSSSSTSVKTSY
Format: cell-based
Description: Agonist-induced increases in ^45 Ca release by oocytes expressing cRNA encoding C140 receptor or other recombinant cells producing C140 receptor are assessed by published techniques (Williams, J. A., et al., Proc Natl Acad Sci USA (1988) 85:4939-4943). Briefly, intracellular calcium pools are labeled by incubating groups of 30 oocytes in 300 μl calcium-free modified Barth's solution (MBSH) containing 50 μCi ^45 CaCl2 (10-40 mCi/mg Ca; Amersham) for 4 hours at RT. The labeled oocytes or cells are washed, then incubated in MBSH II without antibiotics for 90 minutes. Groups of 5 oocytes are selected and placed in individual wells in a 24-well tissue culture plate (Falcon 3047) containing 0.5 ml/well MBSH II without antibiotics. This medium is removed and replaced with fresh medium every 10 minutes; the harvested medium is analyzed by scintillation counting to determine ^45 Ca released by the oocytes during each 10-minute incubation. The 10-minute incubations are continued until a stable baseline of ^45 Ca release per unit time is achieved. Two additional 10-minute collections are obtained, then test medium including agonist is added and agonist-induced ^45 Ca release determined.
Oocytes from Xenopus laevis were harvested and prepared using published techniques (Coleman, A., in Hames, B. D., and Higgins, S. J., eds, Transcription and Translation: A Practical Approach, IRL Press, pp. 271-302; Williams, J. A., et al. Proc Natl Acad Sci USA (1988) 85:4939-4943]. To remove follicular cells, oocytes were incubated for 1.5 h with shaking in calcium-free Barth's containing 2 mg/ml each of collagenase 1A and hyaluronidase 1S. The oocytes were then washed five times in regular Barth's and incubated at 18° C. in Barth's medium containing 100 U/ml penicillin, 100 μg/ml streptomycin, and 2.5 mM sodium pyruvate. Stage V oocytes were selected and injected with 30 nl of cRNA (0.33 μg/μl water) or water alone, and then incubated with 0.25 ml of medium in groups of four/well in a 96-well culture plate. After 36 hours the oocytes were incubated with ^45 Ca (250 μCi/ml). After 12 h incubation the oocytes were washed and 0.2 ml of medium added and replaced every five minutes. The harvested medium was analyzed by scintillation counting. After five replacements to determine the baseline release of ^45 Ca, test medium with the agonist, e.g. SLIGRL (SEQ ID NO: 23), was added and the evoked ^45 Ca-release determined.
Oocytes were injected with capped cRNA (ca 10 ng) encoding wild-type mouse C140 receptor (WT) or either of the three mutant receptors 35Pro, 35Arg and 35His. After 36 hours, cRNA-injected and control water-injected, oocytes were loaded with ^45 Ca, and 12 hours thereafter peptide or trypsin-induced ^45 Ca release were determined as described above. The peptide SLIGRL (SEQ ID NO: 23) was added at 100 μM, and trypsin at 300 pM. The stimulation with the peptide was done on the same group of oocytes after the stimulation with trypsin. The data shown in Table 1 represent the mean of three replicate determinations, and denotes the increase compared to oocytes injected with water.
Various peptides were tested at 100 μM in the assay above using wild-type mouse C140 receptor, expressed in oocytes.

SMILES	Fold increase in 45Ca [fold]
CC[C@H](C)[C@H](NC(=O)[C@H](CC(C)C)NC(=O)[C@H](C)N)C(=O)NCC(=O)N[C@@H](CCCNC(=N)N)C(=O)N[C@@H](CC(C)C)C(=O)O [ALIGRL] (H-ALIGRL-OH)	1.3
CC(C)C[C@H](NC(=O)[C@H](Cc1ccccc1)NC(=O)[C@H](Cc1ccccc1)NC(=O)[C@@H](N)CO)C(=O)N[C@@H](CCCNC(=N)N)C(=O)N[C@@H](Cc1c[nH]c2ccccc12)C(=O)O [SFFLRW, reference compound] (H-SFFLRW-OH)	1.7
CC[C@H](C)[C@H](NC(=O)[C@H](CC(C)C)NC(=O)[C@@H](N)CO)C(=O)NCC(=O)N[C@@H](CCCNC(=N)N)C(=O)N[C@@H](C)C(=O)O [SLIGRA] (H-SLIGRA-OH)	8.5
CC[C@H](C)[C@H](NC(=O)[C@H](CC(C)C)NC(=O)[C@@H](N)CO)C(=O)NCC(=O)N[C@@H](C)C(=O)N[C@@H](CC(C)C)C(=O)O [SLIGAL] (H-SLIGAL-OH)	0
CC[C@H](C)[C@H](NC(=O)[C@H](C)NC(=O)[C@@H](N)CO)C(=O)NCC(=O)N[C@@H](CCCNC(=N)N)C(=O)N[C@@H](CC(C)C)C(=O)O [SAIGRL] (H-SAIGRL-OH)	0
CC(C)C[C@H](NC(=O)[C@H](CCCNC(=N)N)NC(=O)CNC(=O)[C@H](C)NC(=O)[C@H](CC(C)C)NC(=O)[C@@H](N)CO)C(=O)O [SLAGRL] (H-SLAGRL-OH)	0
CC[C@H](C)[C@H](NC(=O)[C@H](CC(C)C)NC(=O)[C@@H](N)CO)C(=O)N[C@@H](C)C(=O)N[C@@H](CCCNC(=N)N)C(=O)N[C@@H](CC(C)C)C(=O)O [SLIARL] (H-SLIARL-OH)	4.3
